# Where “and” joins values, the source holds several entries; their conditions need not be identical. Equal entries are not always repeated. Where two headings read alike, the source gives them in different places. Where no end group is shown, it is not given here.
# Assays:
# ocular lesion [1] = assay: Lesion size in patients 24 weeks after intravitreal ONL1204; format: in vivo, human; conditions: for % Change in Lesion Growth: week 24, study eye relative to untreated fellow eye; for % Change Based on Sqrt Transformation / Baseline Lesion Size / Week 24 Lesion Size: study eye; for % Change Based on Sqrt Transformation: baseline to week 24, square root of lesion area; for Baseline Lesion Size: baseline prior to treatment
# Procedure: The primary endpoints were the safety profile associated with single and multiple dosing in this study, including: adverse event reporting, clinical evaluations including lesion size and clinical evaluation.
# Baseline best lesion size (area in square millimeters) was measured prior to treatment with ONL1204. […] The following doses were evaluated: 50 ug, 100 ug, and 200 ug (micrograms).
# (§1) Table 1A and 1B show reduced lesion sizes associated with treated eyes at week 24. Percent (%) change is measured relative the untreated fellow eye. […] Table 3A, 3B and 3C show reduced lesion sizes associated with treated eyes (Tables 3A and 3C) in addition to associated historical lesion growth (Tables 3A and 3B). […] For “% Change Based on Sqrt Transformation” and similar measures, the square root of the lesion area was determined and the % difference between the starting value and the last timepoint was calculated. Percent (%) change is measured relative the untreated fellow eye.
# [2] = rabbit, in vivo
# Procedure: Pharmacokinetic analyses were performed on the vitreous humor concentration data.
# Seven animals received a repeat IVT dose at 2 mg/mL (0.1 mg/eye) on Day 90.
# Vitreous humor, retina, and choroid were collected on days 1, 7, 14, 28, 42, 61, 90, 97, 151, and 168. Eyes were enucleated, snap frozen using liquid nitrogen, and kept on dry ice or frozen at −80° C. until dissected for collection of aqueous humor, vitreous humor, retina, choroid, iris-ciliary body (ICB), and lens.
# To homogenize ocular tissue samples, weighed amounts of control bovine vitreous humor, retina, and choroid were homogenized in USA scientific impact resistant microtubes containing 2.8 mm ceramic beads. Unknown rabbit vitreous humor, retina, and choroid samples were homogenized in USA scientific impact resistant microtubes containing 2.8 mm ceramic beads. […]
# male rabbit NaIO3 model = assay: Sodium iodate (NaIO3) challenge study, duration of protection; format: in vivo; conditions: for lesion area vs negative control: NaIO3 challenge Day 4
# Procedure: Animals were anesthetized with isoflurane vapors to effect. […] No reflux was noted on the dosing record.
# Animals were anesthetized with isoflurane vapors to effect. […] NaIO3 causes one or more regions of atrophy and depigmentation which creates a window into the choroid.
# The resulting area was then measured.
# visual function = assay: ETDRS Vision (Letters Read), BCVA, in patients treated with ONL1204; format: in vivo, human
# [3] = minipig, in vivo
# Procedure: Seven animals received a repeat IVT dose at 2 mg/mL (0.1 mg/eye) on Day 90. […] Vitreous humor, retina, and choroid were collected on days 1, 7, 14, 28, and 88.
# ocular lesion [4] = assay: Lesion size in historical (V1-V3) and treatment phase (V3-V9), 2 injections of ONL1204 3 months apart; format: in vivo, human; conditions: for % Change Nat His Phase (Using Sqrt Transformation): V1 to V3, 24 weeks before treatment; for % Change Tx Phase (Using Sqrt Transformation) / V1 Lesion Size / V3 Lesion Size / V9 Lesion Size: study eye; for % Change Tx Phase (Using Sqrt Transformation): V3 to V9, 24 weeks; for % Change Tx Phase (Using Sqrt Transformation) / V9 Lesion Size: 2 injections 3 months apart; for V1 Lesion Size: visit 1, start of historical phase, before treatment; for V3 Lesion Size: visit 3, end of historical phase, start of treatment; for V9 Lesion Size: visit 9, 24 weeks after first treatment
# Procedure: as §1
substance,measurement,setting,value
HHIYLGAVNYIY-NH2 [ONL1204],% Change in Lesion Growth,ocular lesion [1]; 50 ug,−45%
same,% Change in Lesion Growth,ocular lesion [1]; 100 ug,−27% and −32%
same,% Change in Lesion Growth,ocular lesion [1]; 200 ug,−57% and −53%
same,lesion size growth,"ocular lesion [1]; all patients, doses 50, 100 and 200 ug, compared to untreated fellow eye",reduction in lesion size growth
same,% Change Based on Sqrt Transformation,ocular lesion [1]; 50 ug,4.14% and 6.95%
same,Baseline Lesion Size,ocular lesion [1]; 100 ug intravitreal,20.1 mm^2 and 24.16 mm^2
same,Week 24 Lesion Size,ocular lesion [1]; 100 ug intravitreal,21.2 mm2 and 27.61 mm2
same,% Change Based on Sqrt Transformation,ocular lesion [1]; 100 ug,2.70% and 6.90%
same,Baseline Lesion Size,ocular lesion [1]; 200 ug intravitreal,9.37 mm^2 and 9.09 mm^2
same,Week 24 Lesion Size,ocular lesion [1]; 200 ug intravitreal,9.81 mm2 and 9.78 mm2
same,% Change Based on Sqrt Transformation,ocular lesion [1]; 200 ug,2.32% and 3.73%
same,detection in retinal tissue as well as the vitreous humor,[2],detected
same,detection in the vitreous humor,[2],detected
same,lesion area vs negative control,male rabbit NaIO3 model; 25 ug per eye IVT Day 0,significantly lower than negative control
same,lesion area vs negative control,male rabbit NaIO3 model; 100 ug per eye IVT Day 0,significantly lower than negative control
same,lesion size vs negative controls and 25 ug group,"male rabbit NaIO3 model; 100 ug per eye IVT Day 0, NaIO3 challenge Day 14",significantly smaller lesion size
same,lesion size vs negative control animals and 25 ug group,"male rabbit NaIO3 model; 100 ug per eye IVT Day 0, NaIO3 challenge Day 28",significantly smaller lesion size
same,mean lesion size,male rabbit NaIO3 model; across challenge time points,substantive reduction
same,"visual function (e.g., BCVA as measured by letters read)",visual function; eyes having a patchy lesion,improved visual function
same,ETDRS Vision (Letters Read) Week 1,"visual function; study eye, 50 μg",42 Letters Read and 33 Letters Read
same,ETDRS Vision (Letters Read) Week 2,"visual function; study eye, 50 μg",34 Letters Read and 33 Letters Read
same,ETDRS Vision (Letters Read) Week 4,"visual function; study eye, 50 μg",36 Letters Read and 33 Letters Read
same,ETDRS Vision (Letters Read) Week 12,"visual function; study eye, 50 μg",36 Letters Read
same,ETDRS Vision (Letters Read) Week 24,"visual function; study eye, 50 μg",42 Letters Read and 35 Letters Read
same,ETDRS Vision (Letters Read) Screening/Baseline,"visual function; study eye, 50 μg, before treatment",23 Letters Read and 26 Letters Read
same,ETDRS Vision (Letters Read) Week 1,"visual function; study eye, 100 μg",13 Letters Read
same,ETDRS Vision (Letters Read) Week 2,"visual function; study eye, 100 μg",13 Letters Read and 19 Letters Read
same,ETDRS Vision (Letters Read) Week 12,"visual function; study eye, 100 μg",15 Letters Read and 27 Letters Read
same,ETDRS Vision (Letters Read) Week 24,"visual function; study eye, 100 μg",15 Letters Read and 24 Letters Read
same,ETDRS Vision (Letters Read) Screening/Baseline,"visual function; study eye, 100 μg, before treatment",14 Letters Read and 11 Letters Read
same,ETDRS Vision (Letters Read) Week 1,"visual function; study eye, 200 μg",29 Letters Read and 31 Letters Read
same,ETDRS Vision (Letters Read) Week 2,"visual function; study eye, 200 μg",32 Letters Read and 30 Letters Read
same,ETDRS Vision (Letters Read) Week 4,"visual function; study eye, 200 μg",30 Letters Read and 38 Letters Read
same,ETDRS Vision (Letters Read) Week 12,"visual function; study eye, 200 μg",28 Letters Read and 41 Letters Read
same,ETDRS Vision (Letters Read) Week 24,"visual function; study eye, 200 μg",26 Letters Read and 40 Letters Read
same,ETDRS Vision (Letters Read) Baseline,"visual function; study eye, 200 μg, baseline visit, on a different day from screening, before treatment",25 Letters Read
same,ETDRS Vision (Letters Read) Screening/Baseline,"visual function; study eye, 200 μg, before treatment",39 Letters Read
same,ETDRS Vision (Letters Read) Screening,"visual function; study eye, 200 μg, screening visit, on a different day from baseline, before treatment",19 Letters Read
same,detection in the vitreous humor,[3],detected
same,% Change Nat His Phase (Using Sqrt Transformation),ocular lesion [4]; study eye later given 50 ug,5.31% and 1.38%
same,% Change Nat His Phase (Using Sqrt Transformation),ocular lesion [4]; study eye later given 100 ug,2.97% and 3.20%
same,% Change Tx Phase (Using Sqrt Transformation),ocular lesion [4]; 50 ug,3.74% and 0.05%
same,V1 Lesion Size,ocular lesion [4]; 50 ug,12.08 mm^2 and 18.41 mm^2
same,V3 Lesion Size,ocular lesion [4]; 50 ug,13.4 mm^2 and 18.92 mm^2
same,V9 Lesion Size,ocular lesion [4]; 50 ug,14.42 mm^2 and 18.94 mm^2
same,% Change Tx Phase (Using Sqrt Transformation),ocular lesion [4]; 100 ug,3.37% and 1.39%
same,V1 Lesion Size,ocular lesion [4]; 100 ug,5.64 mm^2 and 7.7 mm^2
same,V3 Lesion Size,ocular lesion [4]; 100 ug,5.98 mm^2 and 8.2 mm^2
same,V9 Lesion Size,ocular lesion [4]; 100 ug,6.39 mm^2 and 8.43 mm^2
